Assay results as given in paper PMC6803849, “Biodistribution of Nanostructured Lipid Carriers in Mice Atherosclerotic Model” (Molecules, 2019).

Columns and labels:
Experiment in all cases: MMP inhibition assay with fluorogenic substrate
Assay type in all cases: biochemical
hMMP-12 = target: T1, hMMP-12 (Homo sapiens, UniProt P39900)
T1 construct: made in house
Method: (§1) The binding capacity of the RXP470.1 ligand grafted on RXP-NLC surface was first assessed through an inhibition assay in the presence of a fluorogenic substrate. The affinity and selectivity profile of RXP-NLC was determined on a set of eight human MMPs and compared to the parent ligand.
(§2) Affinity and selectivity profile of RXP-NLC were determined toward a set of 8 human MMPs. Human MMP-8, -9, -12, and -13 were produced at CEA in Saclay according to a procedure previously reported. Other MMPs were purchased from R&D Systems (Minneapolis, MN, USA). MMP inhibition assays were carried out in 50 mM Tris-HCl buffer, pH = 6.8, 10 mM CaCl2 at 25 °C as previously described. Pro-MMPs were pre-activated by p-aminophenylmercuric acetate following the method described by R&D Systems. Titration experiments were carried out to determine the active enzyme concentration for each MMP prior to the assay. Continuous kinetic assays were performed by recording the fluorescence increase induced by the cleavage of fluorogenic substrates (Mca-Pro-Leu- Gly-Leu-Dpa-Ala-Arg-NH2 for MMP-1, -2, -7, -8, -9, -10, -12, -13, and -14 and Mca-Arg-Pro-Lys-Pro- Val-Glu- Nva-Trp-Arg-LysDNP-NH2 for MMP-3). A typical experiment was performed in 200 μL of Tris buffer containing 0.2–0.5 nM of MMP, and a 4.5 μM concentration of fluorogenic substrates. Black, flat-bottomed, 96-well non-binding surface plates (Corning-Costar, Schiphol-RijK, Netherlands) were used for these tests. Fluorescence signals were monitored using a Fluoroskan Ascent photon counter spectrophotometer (Thermo-Labsystems, Courtaboeuf, France) equipped with a temperature control device and a plate shaker. […] Ki values were determined using the method proposed by Horovitz and Leviski.

hMMP-10 = target: T2, hMMP-10 (Homo sapiens, UniProt P09238)
T2 construct: purchased R&D Systems
T2 sequence (P09238 99-476): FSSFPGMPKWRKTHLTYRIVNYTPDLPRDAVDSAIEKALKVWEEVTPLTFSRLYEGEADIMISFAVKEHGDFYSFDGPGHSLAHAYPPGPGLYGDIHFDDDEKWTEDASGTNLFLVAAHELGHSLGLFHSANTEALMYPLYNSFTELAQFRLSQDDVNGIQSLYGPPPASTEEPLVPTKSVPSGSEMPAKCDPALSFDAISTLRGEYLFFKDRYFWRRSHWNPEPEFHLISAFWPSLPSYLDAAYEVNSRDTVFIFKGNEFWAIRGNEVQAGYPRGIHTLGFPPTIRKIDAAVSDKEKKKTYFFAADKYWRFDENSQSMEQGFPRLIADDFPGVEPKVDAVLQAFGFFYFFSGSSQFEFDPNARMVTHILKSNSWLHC
Method: as §1, §2

hMMP-14 = target: T3, hMMP-14 (Homo sapiens, UniProt P50281)
T3 construct: purchased R&D Systems
Method: as §1, §2

hMMP-13 = target: T4, hMMP-13 (Homo sapiens, UniProt P45452)
T4 construct: made in house
Method: as §1, §2

hMMP-3 = target: T5, hMMP-3 (Homo sapiens, UniProt P08254)
T5 construct: purchased R&D Systems
T5 sequence (P08254 100-477): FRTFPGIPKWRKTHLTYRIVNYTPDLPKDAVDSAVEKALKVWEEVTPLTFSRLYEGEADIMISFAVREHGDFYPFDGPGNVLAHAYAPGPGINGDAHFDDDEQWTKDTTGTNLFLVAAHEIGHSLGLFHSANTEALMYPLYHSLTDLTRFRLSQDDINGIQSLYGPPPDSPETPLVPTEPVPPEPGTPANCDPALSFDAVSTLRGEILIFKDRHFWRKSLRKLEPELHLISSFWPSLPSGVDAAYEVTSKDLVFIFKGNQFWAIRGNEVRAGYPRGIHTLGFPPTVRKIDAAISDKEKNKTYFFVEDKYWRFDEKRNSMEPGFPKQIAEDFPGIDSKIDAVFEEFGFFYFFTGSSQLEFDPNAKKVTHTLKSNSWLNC
Method: as §1, §2

hMMP-9 = target: T6, hMMP-9 (Homo sapiens, UniProt P14780)
T6 construct: made in house
T6 sequence (P14780 94-707): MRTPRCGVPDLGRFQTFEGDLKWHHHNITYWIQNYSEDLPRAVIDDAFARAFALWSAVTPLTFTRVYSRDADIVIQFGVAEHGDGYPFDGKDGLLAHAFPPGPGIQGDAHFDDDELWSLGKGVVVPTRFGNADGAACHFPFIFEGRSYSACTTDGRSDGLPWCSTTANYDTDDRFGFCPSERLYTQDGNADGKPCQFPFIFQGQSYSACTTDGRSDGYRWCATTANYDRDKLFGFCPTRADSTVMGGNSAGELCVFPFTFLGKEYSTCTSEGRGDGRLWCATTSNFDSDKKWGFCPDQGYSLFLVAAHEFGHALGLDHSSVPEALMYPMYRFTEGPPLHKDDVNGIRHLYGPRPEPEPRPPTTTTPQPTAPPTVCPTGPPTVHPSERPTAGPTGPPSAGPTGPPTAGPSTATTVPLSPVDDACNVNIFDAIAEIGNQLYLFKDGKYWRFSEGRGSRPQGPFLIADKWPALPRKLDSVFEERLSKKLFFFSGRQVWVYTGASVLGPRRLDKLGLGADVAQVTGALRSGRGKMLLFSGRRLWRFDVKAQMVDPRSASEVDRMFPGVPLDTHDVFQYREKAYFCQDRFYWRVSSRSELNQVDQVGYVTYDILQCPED
Method: as §1, §2

hMMP-2 = target: T7, hMMP-2 (Homo sapiens, UniProt P08253)
T7 construct: purchased R&D Systems
T7 sequence (P08253 110-660): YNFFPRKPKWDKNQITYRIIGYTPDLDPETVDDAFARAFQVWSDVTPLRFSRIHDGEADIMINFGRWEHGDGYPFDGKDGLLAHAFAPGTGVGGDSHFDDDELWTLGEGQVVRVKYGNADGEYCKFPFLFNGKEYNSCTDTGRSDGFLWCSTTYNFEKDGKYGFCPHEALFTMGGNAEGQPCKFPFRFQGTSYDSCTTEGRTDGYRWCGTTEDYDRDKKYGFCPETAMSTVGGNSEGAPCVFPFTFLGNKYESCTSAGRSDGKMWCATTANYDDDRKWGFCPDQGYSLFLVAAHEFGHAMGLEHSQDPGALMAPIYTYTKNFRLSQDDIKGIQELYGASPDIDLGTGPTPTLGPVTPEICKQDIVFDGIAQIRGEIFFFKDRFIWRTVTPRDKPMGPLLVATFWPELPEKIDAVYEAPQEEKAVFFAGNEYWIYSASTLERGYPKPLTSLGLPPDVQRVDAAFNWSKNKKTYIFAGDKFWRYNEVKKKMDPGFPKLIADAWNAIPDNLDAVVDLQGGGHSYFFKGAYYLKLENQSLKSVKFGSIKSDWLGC
Method: as §1, §2

hMMP-8 = target: T8, hMMP-8 (Homo sapiens, UniProt P22894)
T8 construct: made in house
T8 sequence (P22894 101-467): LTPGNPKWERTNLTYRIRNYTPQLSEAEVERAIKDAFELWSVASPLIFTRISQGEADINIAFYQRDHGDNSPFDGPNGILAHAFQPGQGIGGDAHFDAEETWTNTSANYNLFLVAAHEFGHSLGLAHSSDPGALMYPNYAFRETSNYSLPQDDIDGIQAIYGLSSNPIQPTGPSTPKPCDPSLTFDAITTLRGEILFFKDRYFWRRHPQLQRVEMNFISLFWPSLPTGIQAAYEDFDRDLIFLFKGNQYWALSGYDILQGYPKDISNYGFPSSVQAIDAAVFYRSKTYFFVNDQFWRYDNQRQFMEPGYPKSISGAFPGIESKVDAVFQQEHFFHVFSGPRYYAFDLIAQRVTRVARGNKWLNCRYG
Method: as §1, §2

T1 sequence (P39900 106-470): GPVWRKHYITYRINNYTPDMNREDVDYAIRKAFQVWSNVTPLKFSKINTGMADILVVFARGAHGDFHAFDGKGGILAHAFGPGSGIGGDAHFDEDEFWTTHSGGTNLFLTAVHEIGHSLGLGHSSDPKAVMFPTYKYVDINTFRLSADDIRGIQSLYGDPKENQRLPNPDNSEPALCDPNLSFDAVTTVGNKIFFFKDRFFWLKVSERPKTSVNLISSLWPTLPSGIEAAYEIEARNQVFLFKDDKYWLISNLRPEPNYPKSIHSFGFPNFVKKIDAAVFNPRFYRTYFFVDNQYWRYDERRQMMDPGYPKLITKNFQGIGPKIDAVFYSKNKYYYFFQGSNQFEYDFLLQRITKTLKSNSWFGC

For `NC(=O)[C@H](CCC(=O)O)NC(=O)[C@H](CCC(=O)O)NC(=O)[C@H](Cc1cc(-c2ccc(-c3cccc(Cl)c3)cc2)no1)CP(=O)(O)c1ccc(Br)cc1` [RXP470.1], the Ki (hMMP-12; 50 mM Tris-HCl buffer, pH 6.8, 10 mM CaCl2, 25 °C, mean ± SD of three independent experiments) was 0.26 ± 0.05 nM, the “Selectivity factor hMMP-12” value (hMMP-12; relative to hMMP12) was 1 and the Ki (hMMP-10) was 17 ± 2 nM. For the same compound, the “Selectivity factor hMMP-10” value (hMMP-10; relative to hMMP12) was 65, the Ki (hMMP-14) was 150 ± 21 nM and the “Selectivity factor hMMP-14” value (hMMP-14; relative to hMMP12) was 577. For the same compound, the Ki (hMMP-13) was 11 ± 1 nM, the “Selectivity factor hMMP-13” value (hMMP-13; relative to hMMP12) was 42 and the Ki (hMMP-3) was 80 ± 2 nM. The “Selectivity factor hMMP-3” value (hMMP-3; relative to hMMP12) was 308, the Ki (hMMP-9) was 170 ± 50 nM and the “Selectivity factor hMMP-9” value (hMMP-9; relative to hMMP12) was 654. For the same compound, the Ki (hMMP-2) was 52 ± 4 nM, the “Selectivity factor hMMP-2” value (hMMP-2; relative to hMMP12) was 200 and the Ki (hMMP-8) was 120 ± 40 nM. For the same compound, the “Selectivity factor hMMP-8” value (hMMP-8; relative to hMMP12) was 462.
